By IC50 is commonly meant the concentration needed to halve the response being measured. The half-life is the time in which the quantity being followed falls by half. A lower half-life goes with fast loss.

For data set [1], the system named is HIV. To be noted: cited from earlier work.
For data set [2] the following is noted: primate; cited from earlier work.
Data set [3] relates to HIV. To be noted: in vivo; cited from earlier work.
The nature of data set [4]: in vitro. The data set is classed as in vitro ADME. The settings on record: both sexes, human, plasma, pH 7.4. As for the experimental part: (§1) After incubation at 37° C., aliquots were taken at each time point and quenched in 2 volumes of Ice-cold methanol. The quenched aliquots were then centrifuged at 14000 rpm for 5 min. The supernatant was diluted 10-fold Into phosphate buffer (0.1 M, pH 7.4) and injected onto the HPLC for analysis (5% to 100% B over 8 minutes at a flow rate of 1 mL mi; solvent A: 50 mM Et3NHOAc, pH 8; solvent B: acetonitrile) and read spectrophotometrically monitoring a decrease in substrate peak area at 305 nm (23) or 280 nm (25) over time. Quantification of 23 at each time point to determine rate was achieved by converting peak areas to nmols using a standard curve (23). Quantification of 25 at each time point to determine rate was achieved by calculating nmols based on the percent of total peak area at 250 nm (25+26, 200 nmol total). Hydrolysis of 25 yields two molar equivalents of 1, determined by quantifying 1 using a standard curve following full conversion of 25 to 1.
Human Plasma (Bioreclamation IVT). Solution used for in vitro metabolism is a 50/50 mix of Human Plasma (Male) (Bioreclamation IVT, Cat #[…]2-M) and Human Plasma (Female) (Bioreclamation IVT, Cat #[…]2-F)

Data set [5] in a line: In vitro metabolism of FTC POP fragments in human skeletal muscle S9. The data set is classed as in vitro ADME. The settings on record: human skeletal muscle S9, 1 mM, 37° C. How it is done: as §1
Human S9-Skeletal Muscle (Bioreclamation IVT). Solution used for in vitro metabolism is a 50/50 mix of Male Human S9 (Bioreclamation IVT, Cat #S03517) and Female Human S9 (Bioreclamation IVT, Cat #S03518). Protein concentrations (mg/mL) were determined by averaging the concentrations provided by Bioreclamation.

A short description of data set [6]: In vitro metabolism of FTC POP fragments in human liver S9. The data set is classed as in vitro ADME. The settings on record: human liver S9, 1 mM, 37° C. As for the experimental part:
as §1
Human Liver S9 Fraction-Pool of 50 (Sekuisi Xenotech, Product #HO610.59; 20 mg/mL stock)

The nature of data set [7]: Stability of carbamate 5 under model polymerization conditions. The data set is classed as physicochemical. To be noted: CH2Cl2, 0.5 eq DMAP, 2 eq pyridine, RT. How it is done:
Stability of compound 5 under polymerization conditions. Carbamate 5 is shown to release TAF in a time bond manner. To determine the stability of carbamate moiety under polymerization conditions and evaluate the utility of TAF phenyl carbamates, carbamate 5 was tested for its stability under model polymerization conditions. A solution of carbamate 5 in methylene chloride (CH2Cl2) was stirred with 0.5 molar equivalent of 4-Dimethylaminopyridine and 2 molar equivalents of pyridine at room temperature (RT, 22-25° C.) for 24 h. The portion of the reaction mixture was removed and dissolved in DMSO followed by analysis of the reaction mixture using HPLC to determine amount of TAF formed and carbamate 5 left after 24 h. Standard curve was used to determine that 20.5% TAF was formed after 24 hours, leaving 79.5% carbamate 5 intact (FIG. 23).

The nature of data set [8]: Solubility of carbamate 5 in phosphate buffer. The settings on record: 100 mM phosphate buffer pH 7.4 with 5% DMSO v/v. The data set is classed as physicochemical. How it is done: Carbamate 5 was synthesized according to the process described above. Purity. The compound was dissolved in DMSO (100 μM) and injected on HPLC to determine purity of 95.1% at 269-270 nm. Standard Curve. Serial dilution of carbamate 5 in DMSO (100 μM to 0.78 μM) was done and each sample injected on HPLC. The UV absorbance at different concentrations was used to obtain a linear standard curve. The standard curve was used in determining solubility in buffers, kinetics of degradation at pH 7.4 and stability under polymerization conditions. Solubility. Carbamate 5 in DMSO was mixed with 100 mM phosphate buffer pH7.4 with varying amounts of DMSO (0.1% v/v, 0.5% v/v, 1% v/v and 5% v/v). The mixtures were centrifuged at 14000 rpm for 5 min and the supernatant injected on HPLC.

Take `C#C[C@]1(CO)O[C@@H](n2cnc3c(N)nc(F)nc32)C[C@@H]1O` [EFdA, 4′-ethynyl-2-fluoro-2′-deoxyadenosine]: in data set [1] (higher than TFV), the “predicted in vitro potency relative to TFV” value was roughly 8400 fold. Further, the IC50 in data set [1] (read-out: in vitro IC50) was roughly 0.2 nM. Also, in data set [2], the “plasma t1/2” value was roughly 7 h. Also, in data set [3], the “viral suppression maintained after the last dose” value is no less than 7 days.

The molecule `O=C(Nc1nc(=O)n([C@@H]2CS[C@H](CO)O2)cc1F)OCCOCCOCCOC(=O)Nc1nc(=O)n([C@@H]2CS[C@H](CO)O2)cc1F` [Polymer 23, (ethane-1,2-diylbis(oxy))bis(ethane-2,1-diyl) bis((5-fluoro-1-((2R,5S)-2-(hydroxymethyl)-1,3-oxathiolan-5-yl)-2-oxo-1,2-dihydropyrimidin-4-yl)carbamate)] showed a half-life at 1 mM in data set [4] of 13 ± 1.5 h. Besides, in data set [5], the “Muscle S9 initial rate (rate of disappearance of starting material)” value was “*Non-linear trend”. For the same molecule, in data set [6], the “Liver S9 initial rate (rate of disappearance of starting material)” value is 0.6 ± 0.06 nmol/h/mg.

For the molecule `Nc1nc(=O)n([C@@H]2CS[C@H](COC(=O)OCCOCCOCCOC(=O)OC[C@@H]3O[C@H](n4cc(F)c(N)nc4=O)CS3)O2)cc1F` [Polymer 25, bis(((2R,5S)-5-(4-amino-5-fluoro-2-oxopyrimidin-1(2H)-yl)-1,3-oxathiolan-2-yl)methyl) ((ethane-1,2-diylbis(oxy))bis(ethane-2,1-diyl)) bis(carbonate)], the half-life at 1 mM in data set [4] is 0.45 ± 0.02 h. The “Muscle S9 initial rate (rate of disappearance of starting material)” value in data set [5] was found to be 3.7 ± 0.4 nmol/h/mg. The “Liver S9 initial rate (rate of disappearance of starting material)” value in data set [6] was determined as 1014 ± 86 nmol/h/mg.

For the molecule “N-(2,4,6-trimethylphenyl)-tenofovir alafenamide carbamate [carbamate 5]”, in data set [7], the “TAF formed after 24 hours” value was 20.5% and the “carbamate 5 left intact after 24 hours” value is reported as 79.5%. For the same molecule, the “solubility (achievable concentration)” value in data set [8] was 111.2 µM.

Source of the values: patent US20220072138A1, “NRTI THERAPIES” (THE UNIVERSITY OF LIVERPOOL, priority 2018, published 2022).
